Earlier results in patent US10426751B2, “Allosteric activators for treatment of phenylketonuria” (MCMASTER UNIVERSITY, priority 2015, dated 2019).
pKi: −log10 of the molar value.

What was measured:
PAH [1] = molecular target: T1, PAH (Mus musculus, UniProt P16331); conditions: cited from earlier work
T1 construct: inducing a 2-fold enhancement in PAH activity in WT mouse liver; host or cells: liver of WT mice
T1 sequence (P16331 1-453): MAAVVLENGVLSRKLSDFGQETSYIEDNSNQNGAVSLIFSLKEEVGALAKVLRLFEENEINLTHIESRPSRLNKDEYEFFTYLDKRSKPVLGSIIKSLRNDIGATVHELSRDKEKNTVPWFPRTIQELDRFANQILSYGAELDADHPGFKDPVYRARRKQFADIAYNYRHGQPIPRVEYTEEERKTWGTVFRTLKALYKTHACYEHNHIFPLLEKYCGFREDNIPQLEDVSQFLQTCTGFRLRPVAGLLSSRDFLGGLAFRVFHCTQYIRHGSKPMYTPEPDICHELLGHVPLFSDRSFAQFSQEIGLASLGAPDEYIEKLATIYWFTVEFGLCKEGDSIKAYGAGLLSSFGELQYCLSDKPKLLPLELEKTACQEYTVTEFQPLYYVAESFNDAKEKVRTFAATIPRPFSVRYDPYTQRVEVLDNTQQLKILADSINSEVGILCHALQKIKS

PAH [2] = molecular target: T2, PAH (Homo sapiens, UniProt P00439); conditions: read-out: Ki (weak competitive inhibitor to PAH); cited from earlier work
T2 sequence (P00439 1-452): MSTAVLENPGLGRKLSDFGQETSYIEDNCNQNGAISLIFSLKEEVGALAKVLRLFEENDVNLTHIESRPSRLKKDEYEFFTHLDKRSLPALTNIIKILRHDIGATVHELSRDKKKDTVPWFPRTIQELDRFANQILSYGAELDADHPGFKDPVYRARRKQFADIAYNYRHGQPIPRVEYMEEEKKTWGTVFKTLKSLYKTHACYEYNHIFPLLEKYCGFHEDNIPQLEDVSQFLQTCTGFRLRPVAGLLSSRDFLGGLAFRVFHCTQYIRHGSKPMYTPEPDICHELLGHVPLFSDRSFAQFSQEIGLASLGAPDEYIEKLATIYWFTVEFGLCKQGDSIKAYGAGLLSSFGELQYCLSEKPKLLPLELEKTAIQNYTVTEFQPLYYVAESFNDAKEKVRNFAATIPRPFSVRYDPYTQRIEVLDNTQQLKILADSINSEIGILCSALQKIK

Row | SMILES | enhancement in PAH activity in WT mouse liver (PAH [1]) [fold] | pKi (PAH [2])
1 | Nc1c(-c2ccc3ccccc3n2)c2ccc([N+](=O)[O-])cc2c(=O)n1Cc1ccccc1 [compound III, 3-amino-2-benzyl-7-nitro-4-(2-quinolyl)-1,2-dihydroisoquinolin-1-one] | 2 | –
2 | Cc1ccnc(-n2c(=S)[nH]c3sc(C)c(C)c3c2=O)c1 [compound IV, 5,6-dimethyl-3-(4-methyl-2-pyridinyl)-2-thioxo-2,3-dihydrothieno[2,3-d] pyrimidin-4(1H)-one] | 2 | 3.70
